Earlier results on 3 compounds are cited in patent US10583106B2, “Method of treating cancer by oral administration of acetate composition comprising magnesium acetate, calcium acetate or ethylacetate” (priority 2015, dated 2020).

Structures are written as SMILES.

In series [1] the test system is Fragile X syndrome patients. The note with it: 12 weeks; from ˜50%; cited from earlier work.
The subject of another series is Non-Hodgkin's Lymphoma. The note with it: continued regime of DCA and thiamine; cited from earlier work.
For series [2] the following is noted: Flavin, 2010; cited from earlier work.
The conditions of series [3]: radioactive DCA; exhaled in breath; cited from earlier work.
For series [4], the system named is polyglutamine induced cell death. Particulars: McCampbell, 2001; cited from earlier work.
In a further series the test system is cultured colon cells. Particulars: Mariadason, 2000; cited from earlier work.

Regarding `CC[C@H](C)C(=O)O[C@H]1C[C@@H](C)C=C2C=C[C@H](C)[C@H](CC[C@@H]3C[C@@H](O)CC(=O)O3)[C@H]21` [Lovastatin], in series [1], the “Aberrant Behavior Checklist score” value is reported as about 30%.
As for `O=C(O)C(Cl)Cl` [DCA, dichloroacetate], in the series with Non-Hodgkin's Lymphoma, the monthly blood tests result is reported as “normal”. In series [2], the “toxicity of prolonged exposure” value is “peripheral neuropathy”. For the same compound, the “fraction metabolized to carbon dioxide” value in series [3] is “up to 50%”.
With `CCCC(=O)[O-].[Na+]` [sodium butyrate], in series [4], the “ability to reduce cell death” value is on record as “reduction in cell death” and the “expression of AR [the mutant protein]” value is “slightly increased”. Moreover, the “number of genes modified relative to TSA” value in the series with cultured colon cells is “roughly 10 times”.
